From patent publication US20190201419A1, “COMPOUND AND METHOD FOR THE TREATMENT AND DIAGNOSIS OF NEURODEGENERATIVE CONDITIONS” (Swansea University, priority 2013, published 2019)

Columns and labels:
[1] = tested on: Abca1, Abcg1 and Srebf1 transcript levels; test: Quantitative PCR of Lxr target genes in SN4741 cells; assay type: cell-based, mouse; settings: 3 h
Protocol: Quantitative PCR, Total RNA was extracted from SN4741. cells and zebrafish treated with the compounds of interest using the RNeasy Mini Kit (Qiagen), 1 μg was treated with RQ1 RNase-free DNase (Promega) and reverse transcribed using SuperScript II Reverse Transcriptase (invitrogen) and random primers (invitrogen) (RT+reaction). Parallel reactions without reverse transcriptase enzyme were done as a control (RT−reaction), and Sybergreen real-time quantitative PCR assays were performed. Expression levels were obtained by normalization with the Value of the housekeeping gene encoding actin obtained for every sample in parallel assays.

[2] = tested on: Islet1+ oculomotor neurons; test: Islet1+ cells in mouse E11.5 brain primary cultures; assay type: cell-based; settings: for Number of Islet1+ cells / Concentration giving significant difference from vehicle in Islet1+ cells: wild type cultures; for Concentration giving significant difference from vehicle in Islet1+ cells: p<0.05
Protocol: (§1) Primary Brain Cultures. Brains from E11.5 mice were manually dissected, plated on poly-D-lysine (150,000 cells/cm^2) and grown in serum-free N2 media consisting of 1:1 mixture of F12 and DMEM with 10 ng/mL insulin, 100 μg/mL apo-transferrin, 100 μM putrescine, 20 nM progesterone, 30 nM selenium, 6 mg/mL glucose, and 1 mg/mL BSA. Cells were treated for 3 days in vitro (DIV) with the compounds of interest, fixed with 4% PFA and processed for staining using appropriate antibodies.
(§2) Antibodies and Detection Procedures. Cells were fixed in 4% PFA, washed in PBS and blocked in 5% normal goat serum/PBS for 1 h at room temperature. Primary antibodies were diluted in PBS (pH 7.4), 0.3% Triton X-100, 1% BSA and incubations were carried out overnight at +4° C. or at room temperature for 2 h. The antibodies used were anti-:BrdU (1:400; Abeam), Islet-1 (1:100: Developmental Studies Hybridoma Bank), cleaved caspase-3 (Aspt 75) (1:100; Cell Signaling Technology), tyrosine hydroxylase (TH; 1:1000; Pel-Freeze) GABA (1:1,000; Sigma), Bm3a (1:250; Millipore), Nkx6.1 (1:200; Novus Biologicals), choline acetyltransferase (ChAT; 1:500; Millipore) and appropriate secondary antibodies (Jackson ImmunoResearch or Alexa). Cells positive for the corresponding marker were counted directly at the microscope at a magnification of 20×. Cells were counted in every well, in eight consecutive fields (going from one side of the well to the other, passing through the center), in three different wells per experiment and in three different experiments per condition. Random pictures of the wells were taken for every condition to document the result, and representative pictures were subsequently selected to represent the quantitative data. Photos were acquired with a Zeiss Axioplan microscope and a Hamamatsu camera C4742-95 using the Openlab software.

[3] = tested on: TH+ dopamine neurons, GABAergic or red nucleus neurons; Nkx6.1+ cells; test: Other cell types in mouse E11.5 brain primary cultures; assay type: cell-based
Protocol: as §1, §2

Lxrβ-LBD = molecular target: T1, Lxrβ-LBD (Homo sapiens, UniProt P55055); test: Lanthascreen TR-FRET Lxrβ coactivator assay; assay type: binding
T1 construct: the Lxrβ-LBD tagged with glutathione-S-transferase (GST); purchased Invitrogen
T1 sequence (P55055 222-460 limits assumed): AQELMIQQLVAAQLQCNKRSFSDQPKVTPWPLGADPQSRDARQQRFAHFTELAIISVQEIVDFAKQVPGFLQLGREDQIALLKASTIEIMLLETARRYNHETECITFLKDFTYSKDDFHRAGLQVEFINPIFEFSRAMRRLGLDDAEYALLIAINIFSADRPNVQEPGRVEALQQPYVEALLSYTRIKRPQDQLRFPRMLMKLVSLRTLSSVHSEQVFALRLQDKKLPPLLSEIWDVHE
Excerpt: Lxrβ Ligand Binding Assay. For Lxrβ ligand binding activity measurement, the applicants used the Lanthascreen™ TR-FRET Lxrβ Coactivator Assay (Invitrogen). The assay uses a terbium (Tb)-labeled anti-GST antibody, a fluorescein-labeled coactivator peptide and the Lxrβ-LBD tagged with glutathione-S-transferase (GST). Binding of the agonist/ligand to Lxrβ-LBD causes a conformational change that result in an increase in the affinity of the Lxrβ for the coactivator peptide. The close proximity of the fluorescently labeled coactivator peptide to the Tb-labeled antibody causes an increase in the TR-FRET signal intensity. The TR-FRET ratio of 520/495 was calculated using a Victor multi label reader with an excitation wavelength of 340 nm and emission wavelengths of 520 nm and 495 nm, The activational capacity of potential ligands was tested in a […] polypropylene plate, following the manufacturer's protocol.

[4] = tested on: Islet1+ oculomotor neurons; test: In utero injection into the cerebral aqueduct of E11.5 mice; assay type: in vivo, mouse; settings: for Number of Islet+ oculomotor neurons in vivo: injected at E11.5, analyzed at E13.5
Excerpt: Animals for in-utero injections and tissue preparation. Female wild-type CD-1 mice ([…]; Charles River Breeding Laboratories) were housed, bred, and treated according to the guidelines of the European Communities Council (directive 86/609/EEC) and the Society for Neuroscience (www.sfr.org/handbook), and all experiments were approved by the local ethical committee. Ethical approval for CD-1 mice experimentation was granted by Stockholm Norra Djurförsökselisks Nämnd number N154/06, N273/11 and N370/09, For embryo analyses, wild type CD-1 mice were mated overnight, and noon of the day the plug was considered E0.5. Embryos were dissected out of the uterine horns in ice-cold PBS, fixed in 4% paraformaldehyde (PFA) for 4 h to overnight, cryoprotected in 15-30% sucrose, frozen in Tissue-Tek Optimum Cutting Temperature (OCT) compound (Sakura Fine-Tek) on dry ice, and stored at −80° C. until use. Serial coronal 14-μm sections of the brain were obtained on a cryostat.
Immunohistochemical analysis of sections. Ten sets of 14 μm serial coronal sections were cut on a cryostat. No. 1 and 6 sets were subjected to immunohistochemistry. Sections were pre-incubated for 1 h in blocking solution followed by incubation at 4° C. overnight with following primary antibodies: anti-TH (1:750, Pel-Freeze), anti-Islet-1 (1:100; Developmental Studies Hybridoma Bank), anti-cleaved caspase-3 (Asp175) (1:100; Cell Signaling Technology). After washing, slides were incubated for 1-2 h at room temperature with the appropriate fluorophore-conjugated (Cy2-, Cy5-, 1:300, Jackson Laboratories; Alexa488-, 555-, and 647-, 1:1000, Invitrogen) secondary antibodies. Confocal pictures were taken with a Zeiss LSM5 Exciter or LSM700 microscope.
In utero intraventricular injections. E11.5 pregnant females were deeply anesthetized using Isofluorane (IsoFlo®, Abbott Labs) and the uterine horns were accessed through an abdominal incision. 1 μL, of the different cholestenoic acids studied (5 mM) or vehicle solution (isopropanol, 50% v/v) was injected into the cerebral aqueduct. […] Embryos were analyzed 48 h later.

SMILES	Abca1, Abcg1 and Srebf1 transcript levels [1]	Rescue of loss of Islet1+ cells induced by 2 μM 3β,7β-diHCA or 3β-HCA ([2]; 10 μM)	Effect on Islet1+ cells in Lxrα−/−β−/− cultures ([2]; cultures from Lxrα−/−β−/− mice)	Number of Islet1+ cells [2]	Concentration giving significant difference from vehicle in Islet1+ cells [2] [µM]	Effect on Islet1+ cells with Lxr antagonist GGPP ([2]; wt cultures, 10 μM GGPP)	Total number of Nkx6.1+ cells [3]	Number of other midbrain neurons (TH+ dopamine, GABAergic, red nucleus) ([3]; data not shown)	TR-FRET signal (coactivator recruitment to Lxrβ-LBD) (Lxrβ-LBD; dose response)	Effect of co-injection on the reduction of oculomotor neurons by 3β-HCA ([4]; co-injection with 3β-HCA)	Number of Islet+ oculomotor neurons in vivo [4]	Competition with the effect of 3β,7α-diHCA in TR-FRET (Lxrβ-LBD; 3β,7α-diHCA at 10 μM plus increasing concentrations of competitor)	Competitor concentration giving significant difference from 10 μM 3β,7α-diHCA alone in TR-FRET (Lxrβ-LBD; p<0.05 vs 10 μM 3β,7α-diHCA)
CC(CCC[C@@H](C)[C@H]1CC[C@H]2[C@@H]3[C@H](O)C=C4C[C@@H](O)CC[C@]4(C)[C@H]3CC[C@]12C)C(=O)O (stereo partly drawn) [3β,7α-diHCA, 3β,7α-dihydroxycholest-5-en-26-oic acid]	increased transcripts levels to a similar degree as 22R-HC	reversed the loss of Islet1+ cells	eliminated	increased the number of Islet1+ oculomotor cells in the cultures	≥ 5	blocked by the Lxr antagonist GGPP	neither 3β,7α-diHCA nor 3β-HCA altered the total number of Nkx6.1+ cells	did not affect the number of other midbrain neurons	induced FRET in a dose dependent manner to a higher degree than the other acids	this effect was eliminated by co-injection of 3β,7α-diHCA	an increase in the number of Islet+ oculomotor neurons		
CC(CCC[C@@H](C)[C@H]1CC[C@H]2[C@@H]3CC=C4C[C@@H](O)CC[C@]4(C)[C@H]3CC[C@]12C)C(=O)O (stereo partly drawn) [3β-HCA, 3β-hydroxycholest-5-en-26-oic acid]	induced transcription, but to a lesser extent			caused the loss of Islet1+ cells in the cultures	≥ 2		neither 3β,7α-diHCA nor 3β-HCA altered the total number of Nkx6.1+ cells				the number of oculomotor neurons was reduced	the effect of 3β,7α-diHCA was reduced to that of the latter acids	≥ 5
